Laboratory results from patent US6461997B1, “Triazole sulfones having herbicidal activity” (Monsanto Technology LLC, priority 1999, dated 2002).

What was measured:
SETFA (giant foxtail) = assay: Pre-emergence herbicidal activity, warm season; type: in vivo, Setaria faberi; conditions: GR80 = lowest tested rate (300, 100, 30, 10 g/ha) with 80% or greater inhibition; approx. 14 days after treating; 30/21° C.
How it was run: (§1)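 GR80 values derive from percent inhibition relative to untreated plants, read roughly 14 days after sowing and pre-emergence soil-surface treatment (compound in 50:50 acetone/water; rates typically 10, 30, 100, 300 g/ha). Warm-season weeds grew at 30/21° C day/night, cool-season ones at 18/13° C; an asterisk marks activity without reaching 80% at the highest rate.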

CONAR (field bindweed) = assay: Pre-emergence herbicidal activity, warm season; type: in vivo, Convolvulus arvensis; conditions: GR80 = lowest tested rate (300, 100, 30, 10 g/ha) with 80% or greater inhibition; approx. 14 days after treating; 30/21° C.
Protocol: (§2) Tables 5 to 8 summarize results of tests conducted as described below to determine the pre-emergence herbicidal activity, in the form of a GR80 value, of illustrative compounds of this invention. […] Compounds of the invention were typically applied at rates of 300, 100, 30, and 10 g/ha. Where herbicidal activity was evident but 80% inhibition was not achieved at the highest rate tested, an asterisk (*) is shown in the following tables.
(§3) The pre-emergence tests were conducted by the following procedure. Topsoil was sieved to pass through a 1.27 cm screen. Fertilizer was added to the topsoil and the mixture was then sterilized by heating. The topsoil mixture was placed in a pot and compacted to a depth of 1.0 to 1.25 cm from the top of the pot. Seeds of each of several monocotyledonous and dicotyledonous annual plant species were placed on top of the soil. Additional soil was subsequently placed over the seeds to level-fill the pot. A known amount of each test compound dissolved or suspended in an appropriate organic solvent was diluted with a 50:50 mix of acetone and water and applied to the surface of the soil. After treatment the plants were placed in a greenhouse where they received 0.64 cm of overhead irrigation. All subsequent watering consisted of a light overhead mist and/or subirrigation as needed for germination and growth. Tables 5 and 6 below relate to warm season plant species which were placed after pre-emergence treatment in a greenhouse with a 30/21° C. day/night temperature regime. Tables 7 and 8 below relates to cool season plant species placed after pre-emergence treatment in a greenhouse or growth chamber with an 18/13° C. day/night temperature regime.
(§4) Approximately 14 days after planting and treating, the plants were observed and herbicidal efficacy recorded as percent inhibition by comparison with untreated plants.
(§5) The plant species usually regarded as weeds which were utilized in the tests are identified in the tables below according to the following legend, in which “d” indicates a dicotyledonous species and “m” a monocotyledonous species. All monocotyledonous species included in the tests herein are grasses.

SOLNI (black nightshade) = assay: Pre-emergence herbicidal activity, warm season; type: in vivo, Solanum nigrum; conditions: GR80 = lowest tested rate (300, 100, 30, 10 g/ha) with 80% or greater inhibition; approx. 14 days after treating; 30/21° C.
How it was run: (§6)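 Seeds sown in sterilised fertilised topsoil received surface-applied compound in 50:50 acetone/water, typically at 300, 100, 30 and 10 g/ha, then greenhouse-grown at 30/21° C (warm-season species) or 18/13° C (cool-season species). Percent inhibition versus untreated plants was scored at about 14 days, giving GR80; an asterisk marks activity short of 80% at the top rate.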

[1] = test system: PANMI (wild proso millet); assay: Pre-emergence herbicidal activity, warm season; type: in vivo, Panicum miliaceum; conditions: GR80 = lowest tested rate (300, 100, 30, 10 g/ha) with 80% or greater inhibition; approx. 14 days after treating; 30/21° C.
How it was run: (§7)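 Seeds were sown in sterilized, fertilized topsoil, covered, and the soil surface was sprayed with compound in 50:50 acetone/water at 300, 100, 30 and 10 g/ha. Pots were held at 30/21 °C day/night (PANMI, DIGSA) or 18/13 °C (ALOMY, POLCO). GR80 came from percent inhibition versus untreated plants at about 14 days.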

[2] = test system: LAMPU (purple deadnettle); assay: Pre-emergence herbicidal activity, cool season; type: in vivo, Lamium purpureum; conditions: lowest tested rate with 80% or greater inhibition; rates 300, 100, 30, 10 g/ha; about 14 days
How it was run: as §6

SORVU (shattercane) = assay: Pre-emergence herbicidal activity, warm season; type: in vivo, Sorghum vulgare; conditions: GR80 = lowest tested rate (300, 100, 30, 10 g/ha) with 80% or greater inhibition; approx. 14 days after treating; 30/21° C.
How it was run: as §1

AMARE (redroot pigweed) = assay: Pre-emergence herbicidal activity, warm season; type: in vivo, Amaranthus retroflexus; conditions: GR80 = lowest tested rate (300, 100, 30, 10 g/ha) with 80% or greater inhibition; approx. 14 days after treating; 30/21° C.
How it was run: as §6

[3] = test system: AGSST (creeping bentgrass); assay: Pre-emergence herbicidal activity, cool season; type: in vivo, Agrostis stolonifera; conditions: GR80 = lowest tested rate (300, 100, 30, 10 g/ha) with 80% or greater inhibition; approx. 14 days after treating; 18/13° C.
How it was run: as §6

[4] = test system: BRAPP (broadleaf signalgrass); assay: Pre-emergence herbicidal activity, warm season; type: in vivo, Brachiaria platyphylla; conditions: GR80 = lowest tested rate (300, 100, 30, 10 g/ha) with 80% or greater inhibition; approx. 14 days after treating; 30/21° C.
How it was run: as §1

SASKR (russian thistle) = assay: Pre-emergence herbicidal activity, cool season; type: in vivo, Salsola kali; conditions: lowest tested rate with 80% or greater inhibition; rates 300, 100, 30, 10 g/ha; about 14 days
How it was run: as §6

[5] = test system: GALAP (catchweed bedstraw); assay: Pre-emergence herbicidal activity, cool season; type: in vivo, Galium aparine; conditions: lowest tested rate with 80% or greater inhibition; rates 300, 100, 30, 10 g/ha; about 14 days
How it was run: as §6

[6] = test system: CIRAR (canada thistle (seedling)); assay: Pre-emergence herbicidal activity, warm season; type: in vivo, Cirsium arvense; conditions: GR80 = lowest tested rate (300, 100, 30, 10 g/ha) with 80% or greater inhibition; approx. 14 days after treating; 30/21° C.
How it was run: as §6

SETVI (green foxtail) = assay: Pre-emergence herbicidal activity, cool season; type: in vivo, Setaria viridis; conditions: GR80 = lowest tested rate (300, 100, 30, 10 g/ha) with 80% or greater inhibition; approx. 14 days after treating; 18/13° C.
How it was run: as §6

DIGSA (large crabgrass) = assay: Pre-emergence herbicidal activity, warm season; type: in vivo, Digitaria sanguinalis; conditions: GR80 = lowest tested rate (300, 100, 30, 10 g/ha) with 80% or greater inhibition; approx. 14 days after treating; 30/21° C.
How it was run: as §7

STEME (common chickweed) = assay: Pre-emergence herbicidal activity, cool season; type: in vivo, Stellaria media; conditions: lowest tested rate with 80% or greater inhibition; rates 300, 100, 30, 10 g/ha; about 14 days
How it was run: as §6

SINAR (wild mustard) = assay: Pre-emergence herbicidal activity, cool season; type: in vivo, Sinapis arvensis; conditions: lowest tested rate with 80% or greater inhibition; rates 300, 100, 30, 10 g/ha; about 14 days
How it was run: as §6

POROL (common purslane) = assay: Pre-emergence herbicidal activity, warm season; type: in vivo, Portulaca oleracea; conditions: GR80 = lowest tested rate (300, 100, 30, 10 g/ha) with 80% or greater inhibition; approx. 14 days after treating; 30/21° C.
How it was run: as §6

[7] = test system: CHEAL (common lambsquarters); assay: Pre-emergence herbicidal activity, warm season; type: in vivo, Chenopodium album; conditions: GR80 = lowest tested rate (300, 100, 30, 10 g/ha) with 80% or greater inhibition; approx. 14 days after treating; 30/21° C.
How it was run: as §6

[8] = test system: VERPE (creeping speedwell); assay: Pre-emergence herbicidal activity, cool season; type: in vivo, Veronica persicaria; conditions: lowest tested rate with 80% or greater inhibition; rates 300, 100, 30, 10 g/ha; about 14 days
How it was run: as §6

POLCO (wild buckwheat) = assay: Pre-emergence herbicidal activity, cool season; type: in vivo, Polygonum convolvulus; conditions: lowest tested rate with 80% or greater inhibition; rates 300, 100, 30, 10 g/ha; about 14 days
How it was run: as §7

ALOMY (blackgrass) = assay: Pre-emergence herbicidal activity, cool season; type: in vivo, Alopecurus myosuroides; conditions: GR80 = lowest tested rate (300, 100, 30, 10 g/ha) with 80% or greater inhibition; approx. 14 days after treating; 18/13° C.
How it was run: as §7

[9] = test system: SORHA (johnsongrass (seedling)); assay: Pre-emergence herbicidal activity, warm season; type: in vivo, Sorghum halepense; conditions: GR80 = lowest tested rate (300, 100, 30, 10 g/ha) with 80% or greater inhibition; approx. 14 days after treating; 30/21° C.
How it was run: as §1

AVEFA (wild oat) = assay: Pre-emergence herbicidal activity, cool season; type: in vivo, Avena fatua; conditions: GR80 = lowest tested rate (300, 100, 30, 10 g/ha) with 80% or greater inhibition; approx. 14 days after treating; 18/13° C.
Protocol: as §2, §3, §4, §5

DATST (jimsonweed) = assay: Pre-emergence herbicidal activity, warm season; type: in vivo, Datura stramonium; conditions: GR80 = lowest tested rate (300, 100, 30, 10 g/ha) with 80% or greater inhibition; approx. 14 days after treating; 30/21° C.
Protocol: as §2, §3, §4, §5

ABUTH (velvetleaf) = assay: Pre-emergence herbicidal activity, warm season; type: in vivo, Abutilon theophrasti; conditions: GR80 = lowest tested rate (300, 100, 30, 10 g/ha) with 80% or greater inhibition; approx. 14 days after treating; 30/21° C.
Protocol: as §2, §3, §4, §5

| SMILES | Pre-emergence activity (GR80) SETFA (SETFA (giant foxtail)) [g/ha] | Pre-emergence activity (GR80) CONAR (CONAR (field bindweed)) [g/ha] | Pre-emergence activity (GR80) SOLNI (SOLNI (black nightshade)) [g/ha] | Pre-emergence activity (GR80) PANMI [1] [g/ha] | Pre-emergence activity GR80, LAMPU [2] | Pre-emergence activity (GR80) SORVU (SORVU (shattercane)) [g/ha] | Pre-emergence activity (GR80) AMARE (AMARE (redroot pigweed)) [g/ha] | Pre-emergence activity (GR80) AGSST [3] [g/ha] | Pre-emergence activity (GR80) BRAPP [4] [g/ha] | Pre-emergence activity GR80, SASKR (SASKR (russian thistle)) | Pre-emergence activity GR80, GALAP [5] | Pre-emergence activity (GR80) CIRAR [6] [g/ha] | Pre-emergence activity (GR80) SETVI (SETVI (green foxtail)) [g/ha] | Pre-emergence activity (GR80) DIGSA (DIGSA (large crabgrass)) [g/ha] | Pre-emergence activity GR80, STEME (STEME (common chickweed)) | Pre-emergence activity GR80, SINAR (SINAR (wild mustard)) | Pre-emergence activity (GR80) POROL (POROL (common purslane)) [g/ha] | Pre-emergence activity (GR80) CHEAL [7] [g/ha] | Pre-emergence activity GR80, VERPE [8] | Pre-emergence activity GR80, POLCO (POLCO (wild buckwheat)) | further results |
| --- | --- | --- | --- | --- | --- | --- | --- | --- | --- | --- | --- | --- | --- | --- | --- | --- | --- | --- | --- | --- | --- |
| O=C(N1CCCC1)n1cnc(S(=O)(=O)C(F)(F)Cl)n1 [Example 83] | 300 | 300 | 300 | 100 | 100 g/ha | 300 | 300 | 100 | 100 | 300 g/ha | 100 g/ha | 100 | 300 | 100 | 300 g/ha | [empty] | 100 | 100 | [empty] | 300 g/ha | Pre-emergence activity (GR80) ALOMY (ALOMY (blackgrass)): 300 g/ha; Pre-emergence activity (GR80) SORHA [9]: 300 g/ha |
| CN(C)C(=O)n1cnc(S(=O)(=O)C(F)F)n1 [Example 26] | – | – | – | – | 300 g/ha | – | – | 30 | – | 300 g/ha | 300 g/ha | – | 300 | – | [empty] | [empty] | – | – | 300 g/ha | 300 g/ha | Pre-emergence activity (GR80) AVEFA (AVEFA (wild oat)): 300 g/ha |
| CN(Cc1ccccc1)C(=O)n1cnc(S(=O)(=O)C(F)(F)Cl)n1 [Example 92] | – | 300 | – | – | [empty] | – | – | – | – | [empty] | [empty] | – | – | – | [empty] | [empty] | – | 300 | [empty] | [empty] | – |
| CCN(CC)C(=S)n1cnc(S(=O)(=O)C(F)(F)Cl)n1 [Example 94] | 100 | 100 | 100 | 100 | 300 g/ha | 100 | 10 | 300 | 10 | [empty] | [empty] | 30 | – | 300 | 300 g/ha | [empty] | 30 | 30 | [empty] | 10 g/ha | Pre-emergence activity (GR80) DATST (DATST (jimsonweed)): 300 g/ha; Pre-emergence activity (GR80) ABUTH (ABUTH (velvetleaf)): 100 g/ha; Pre-emergence activity (GR80) ALOMY (ALOMY (blackgrass)): 10 g/ha; Pre-emergence activity (GR80) SORHA [9]: 300 g/ha |
